Read-outs that look alike come from different tables or passages of the source.

Series [1] addresses T1, D9 (Vaccinia virus, UniProt P04311).
T1 construct: His-tag (C); made in house
The format is biochemical. Particulars: 30 μM compound, 25 nM D9, 30 °C, 2 h, RP HPLC.

Series [2] addresses T1, D9. The following applies: cited from earlier work.
A further series concerns the target T2, VACV D9 decapping enzyme (Vaccinia virus, UniProt P04311).
T2 construct: His-tag (C); made in house
Briefly: biochemical. The format is biochemical. On the procedure:
(§1) Point fluorescence measurements were performed using the BioTek Synergy H1 microplate reader. Before each measurement, the reaction buffer was degassed. Experiments were performed in the Greiner 96-well, black, non-binding plates at 30 °C. Before the measurement, the plate was preincubated for 15 min at 30 °C with mixing (300 rpm). The point fluorescence was registered with 1 min interval and detection at 345 nm excitation wavelength and 378 nm emission wavelength.
Experiments to determine IC50 parameters were performed as point fluorescence measurements. Each well contained an appropriate buffer (10 mM MOPS·HCl, pH 7.0, 100 mM KOAc, containing 2 mM MgCl2, 0.3 mM MnCl2, and 2 mM DTT) with addition of 0.1% BSA, a fluorescent substrate (3 μM of probe 1b), an inhibitor (in half-logarithmic dilution, cinh ∈ 0, 100 μM), and an enzyme (5 nM of D9) to a final volume of 150 μL. To determine the IC50 values, a three parameter dose–response formula with standard hill slope from GraphPad Prism software was fitted [drawing 3] where V/V0 is the relative initial rate of the reaction, Imin and Imax are bottom and top plateaus, and Cinh is the concentration of the inhibitor.

For the next series, the target named is T3, human Dcp1/2 complex (Homo sapiens, UniProt Q8IU60).
T3 construct: His-tag; made in house; host or cells: E. coli BL21(DE3) RIL
The format is biochemical. Particulars: 11 nM hDcp1/2, inhibitor up to 100 μM, 37 °C, 1 h.

The target in a further series is T4, VACV D10 (Vaccinia virus, UniProt P04312).
T4 construct: made in house
The series is classed as biochemical.

Series [3] has as its system C[n+]1cn([C@@H]2O[C@H](COP(=O)(O)OP(=O)([O-])OP(=O)(O)CCc3cn(CCOCCOCCNC(=O)Cc4ccc5ccc6cccc7ccc4c5c67)nn3)[C@@H](O)[C@H]2O)c2nc(N)[nH]c(=O)c21. Briefly: Michaelis-Menten kinetics of probe 1b hydrolysis by D9. The following applies: other: probe 0-15 μM, 5 nM D9; means of three experiments ± SEM; pH 7.0; 30.0 °C. The series is classed as biochemical, Vaccinia virus. Here is the method:
as §1
To determine the kinetic parameters of enzymatic hydrolysis of probe 1b by D9 enzyme, point fluorescence measurements were performed. Each well of the plate contained an appropriate buffer (10 mM MOPS·HCl, pH 7.0, 100 mM KOAc, containing 2 mM MgCl2, 0.3 mM MnCl2, and 2 mM DTT) with addition of 0.1% BSA, a substrate (probe 1b at a concentration range 0–15 μM) and an enzyme (5 nM of D9) to a final volume of 150 μL. The measurement was carried out on until full saturation, which allowed us to convert the initial rates from au/min to mol/min/mg. The initial rates were calculated by fitting a linear curve to the first 10 points (10 min) of the hydrolysis reaction. […]

Another series has as its system SpDcp1/Dcp2. The following applies: cited from earlier work.
Series [4] concerns the target T1, D9. Kind of series: Time-dependent fluorescence changes of probes 1a-1e on D9 cleavage. The series is classed as biochemical. The following applies: probe 100 nM, D9 50 nM, pH 7.5 (Figure S1). On the procedure: Fluorescence emission spectra were recorded using the Agilent Cary Eclipse fluorescence spectrophotometer equipped with the xenon lamp under temperature-controlled conditions. All experiments were performed at 37 °C in the Hellma quartz cuvette (10 × 4 mm) with a sample volume 1000 μL in 10 mM Tris·HCl (pH 7.5), 100 mM KOAc, 2 mM MgCl2, 0.5 mM MnCl2, and 2 mM DTT. Before each measurement, the buffer was degassed. Emission spectra were registered for all excitation maxima (detailed wavelengths for each probe: 1a—exc. 490/em. 512 nm; 1b, 1d, and 1e—345/378 nm; and 1c—420/489 nm).

Where [5] appears, read: in-house nucleotide library (Table S1, Figure 3), 3 μM probe 1b, 5 nM D9, 30 °C, means of 3 independent experiments ± SEM, read-out: IC50, nucleotide-derived compounds, FLINT HTS assay.
The mark [6] stands for this setting: read-out: IC50, nucleotide-derived compounds, FLINT HTS assay, in-house nucleotide library (Table S1, Figure 3), 3 μM probe 1b, 5 nM D9, 30 °C, means of 3 independent experiments ± SEM.

As for `Cn1c[n+]([C@@H]2O[C@H](COP(=O)([O-])OP(=O)(O)OP(=O)(O)O)[C@@H](O)[C@H]2O)c2nc(N)[nH]c(=O)c21` [m7GTP], the “susceptibility to hydrolysis by D9” value on D9 [1] is “very poor D9 substrates”. Moreover, the “D9 inhibition (literature)” value at D9 [2] was “less potent D9 inhibitors”. The IC50 – broadly, the concentration needed to halve the response being measured – on VACV D9 decapping enzyme (setting [5]) was found to be 0.77 ± 0.06 µM.
Consider `Cn1c[n+]([C@@H]2O[C@H](COP(=O)(O)OP(=O)([O-])OP(=O)(O)OC[C@H]3O[C@@H](n4cnc5c(=O)[nH]c(N)nc54)[C@H](O)[C@@H]3O)[C@@H](O)[C@H]2O)c2nc(N)[nH]c(=O)c21` [m7GpppG], for which the “susceptibility to hydrolysis by D9” value on D9 [1] was “very poor D9 substrates”. The “D9 inhibition (literature)” value at D9 [2] is given as “less potent D9 inhibitors”. Also, the half-maximal inhibitory concentration (IC50) on VACV D9 decapping enzyme (LOPAC hits and reference compounds (Table 2), 3 μM probe 1b, 5 nM D9, 30 °C, mean ± SEM of three experiments, read-out: IC50, inhibitors identified by HTS screening) turned out to be 15 ± 2 µM; at VACV D9 decapping enzyme (setting [5]) it was 11.3 ± 1.9 µM.
As for `CC[C@H](CO)Nc1nc(NCc2ccccc2)c2ncn(C(C)C)c2n1` [seliciclib, reference compound], the “inhibitory activity toward Dcp1/2” value on human Dcp1/2 complex is listed as “very low inhibitory activity”. Further, the “inhibitory activity toward D10” value against VACV D10 is “very low inhibitory activity”.
For the compound “VACV D9 decapping enzyme (Vaccinia virus WR)”, in series [3], the Km (as a rule, the substrate concentration at which the rate is half of its maximum) turned out to be 12.9 ± 2.2 µM and the kcat/Km – broadly, the turnover number divided by the Michaelis constant – worked out at 6300 ± 1200 M⁻¹ s⁻¹.
For `C[n+]1cn([C@@H]2O[C@H](COP(=O)([S-])OP(=O)(O)OP(=O)(O)OP(=O)([S-])OC[C@H]3O[C@@H](n4c[n+](C)c5c(O)nc(N)nc54)[C@H](O)[C@@H]3O)[C@@H](O)[C@H]2O)c2nc(N)nc(O)c21` (some centres unmarked) [m7GpSpppSm7G D3], the “inhibition of yeast decapping enzyme SpDcp1/Dcp2 (literature)” value with SpDcp1/Dcp2 is on record as “inhibitor”. In addition, at VACV D9 decapping enzyme (setting [6]), the IC50 turned out to be 3.6 ± 0.4 µM.
For `C[n+]1cn([C@@H]2O[C@H](COP(=O)(O)OP(=O)([O-])OP(=O)(O)CCc3cn(CCOCCOCCNC(=O)Cc4ccc5ccc6cccc7ccc4c5c67)nn3)[C@@H](O)[C@H]2O)c2nc(N)[nH]c(=O)c21` [Compound 1b, m^7GTP-Py], the “time to complete hydrolysis by D9” value on D9 [4] was ~ 40 min.
Regarding `C[n+]1cn([C@@H]2O[C@H](COP(=O)([O-])OP(=O)(O)O)[C@@H](O)[C@H]2O)c2nc(N)[nH]c(=O)c21` [m7GDP], the “D9 inhibition (literature)” value on D9 [2] is listed as “less potent D9 inhibitors”. For the same compound, the half-maximal inhibitory concentration (IC50) at VACV D9 decapping enzyme turned out to be 14.2 ± 2.4 µM.
On to `CO[C@@H]1[C@H](OP(=O)(O)OC[C@H]2O[C@@H](n3cnc4c(=O)[nH]c(N)nc43)[C@H](O)[C@@H]2O)[C@@H](COP(=O)(O)OP(=O)(O)OP(=O)([O-])OC[C@H]2O[C@@H]([n+]3cn(C)c4c(=O)[nH]c(N)nc43)[C@H](O)[C@@H]2O)O[C@H]1n1cnc2c(N)ncnc21` [m7GpppAmpG], for which, on VACV D9 decapping enzyme (setting [5]), the IC50 was 20.4 ± 3.4 µM.
On to `C[n+]1cn([C@@H]2O[C@H](COP(=O)(O)OP(=O)([O-])OP(=O)(O)CP(=O)(O)O)[C@@H](O)[C@H]2O)c2nc(N)nc(O)c21` [m7GpppCH2p], for which the IC50 at VACV D9 decapping enzyme (setting [6]) is roughly 0.08 µM. The “inhibitory activity toward D10” value against VACV D10 is given as “weak inhibitory activity”.
Regarding `C[n+]1cn(C2OC(COP(=O)([O-])OP(=O)(O)C(F)(F)P(=O)(O)OP(=O)([O-])OCC3OC(n4c[n+](C)c5c(=O)[nH]c(N)nc54)C(O)C3O)C(O)C2O)c2nc(N)[nH]c(=O)c21` (centres unmarked) [m7GppCF2ppm7G], the IC50 at VACV D9 decapping enzyme (setting [5]) came to 14.7 ± 2.6 µM.
With `Cc1n([C@@H]2O[C@H](COP(=O)(O)OP(=O)(O)O)[C@@H](O)[C@H]2O)c2nc(N)[nH]c(=O)c2[n+]1C` [Compound 8Mem7GDP, 8Mem7GDP], the IC50 at VACV D9 decapping enzyme (setting [5]) is greater than 100 µM.
With Gppp-triazole-m7G, the IC50 on VACV D9 decapping enzyme (setting [5]) amounted to 35 ± 5.3 µM.
Consider `CO[C@H]1[C@@H](O)[C@H]([n+]2cn(C)c3c(=O)[nH]c(N)nc32)O[C@@H]1COP(=O)([O-])OP(=O)(O)OP(=O)(O)OC[C@H]1O[C@@H](n2cnc3c(=O)[nH]c(N)nc32)[C@H](O)[C@@H]1O` [m27,3’OGpppG], for which, at VACV D9 decapping enzyme (setting [5]), the IC50 is 10.6 ± 1.1 µM.
In the case of m7Gppp m6AmpG, the IC50 on VACV D9 decapping enzyme (setting [5]) was 17.4 ± 3 µM.
On to `Cc1cc(C)n2c1C=C1C=CC(CNC(=O)CSP(=O)([O-])OP(=O)(O)OP(=O)(O)OC[C@H]3O[C@@H](n4c[n+](C)c5c(=O)[nH]c(N)nc54)[C@H](O)[C@@H]3O)=[N+]1[B-]2(F)F` [Compound 1a, m^7GTPγS-BODIPY-FL], for which, on D9 [4], the “time to complete hydrolysis by D9” value is reported as ~ 40 min.
In the case of `CO[C@@H]1[C@H](O)[C@@H](COP(=O)(O)OP(=O)(O)OP(=O)(O)OC[C@H]2O[C@@H]([n+]3cn(C)c4c(=O)[nH]c(N)nc43)[C@H](O)[C@@H]2O)O[C@H]1n1cnc2c(N)ncnc21` [m7GpppAm], the concentration for half-maximal inhibition (IC50) on VACV D9 decapping enzyme (setting [5]) worked out at 19.8 ± 3.6 µM.

Source of the values: publication PMC9207806 (ACS Chemical Biology, 2022).
